Measurements from patent publication US20110166123A1, “NOVEL COMPOSITIONS AND METHODS OF USE” (priority 2008, published 2011).

Each molecule was assayed on human immunodeficiency virus type 1 (HIV-1) (assay: microbe, parasite or virus in culture). Settings: Human immunodeficiency virus 1, HeLa, 48 h, HIV-1 luciferase reporter, HeLa cells, 48 hours after infection.
Type: cell-based

`COc1nc2c(cc1N(C)Cc1ccc(F)cc1)c(=O)c(C(=O)O)cn2[C@H](CO)C(C)C` [Example 20V, (S)-6-((4-fluorobenzyl)(methyl)amino)-1-(1-hydroxy-3-methylbutan-2-yl)-7-methoxy-4-oxo-1,4-dihydro-1,8-naphthyridine-3-carboxylic acid] and `COc1nc2c(cc1NCCc1ccc(F)cc1)c(=O)c(C(=O)O)cn2[C@H](CO)C(C)C` [Example 20T, (S)-6-(4-fluorophenethylamino)-1-(1-hydroxy-3-methylbutan-2-yl)-7-methoxy-4-oxo-1,4-dihydro-1,8-naphthyridine-3-carboxylic acid] cannot be ordered by EC50: over 100 nM for the first, over 100 nM for the second.

First: COc1cc2c(cc1Oc1c(F)cc(F)cc1F)c(=O)c(C(=O)O)cn2[C@H](CO)C(C)(C)C [Example 29F]
Second: Cc1cc2c(cc1NCc1c(F)cc(F)cc1F)c(=O)c(C(=O)O)cn2[C@H](CO)C(C)(C)C [Example 25D, (S)-1-(1-hydroxy-3,3-dimethylbutan-2-yl)-7-methyl-4-oxo-6-(2,4,6-trifluorobenzylamino)-1,4-dihydroquinoline-3-carboxylic acid]
The EC50 of the first is higher: over 100 nM for the first, under 10 nM for the second.

`CCCn1cc(C(=O)O)c(=O)c2c(N)nc(SC)nc21` [Example 7B] and `COc1nc2c(cc1Cc1cccc(Cl)c1F)c(=O)c(C(=O)O)cn2[C@@H](C)CO` [Example 1F] cannot be ordered by EC50: over 100 nM for the first, over 100 nM for the second.

`CCC[C@@H](CO)n1cc(C(=O)O)c(=O)c2cc(Cc3cccc(Cl)c3F)ncc21` [Example 5I] and `CCCC[C@@H](CO)n1cc(C(=O)O)c(=O)c2cc(Cc3cccc(Cl)c3F)ncc21` [Example 5J] cannot be ordered by EC50: over 100 nM for the first, over 100 nM for the second.

`COc1nc2c(cc1N1CCc3ccc(F)cc3C1)c(=O)c(C(=O)O)cn2[C@H](CO)C(C)C` [Example 17N] and `COc1nc2c(cc1-c1ccc(F)cc1F)c(=O)c(C(=O)O)cn2[C@H](CO)C(C)C` [Example 17E] cannot be ordered by EC50: over 100 nM for the first, over 100 nM for the second.

First: O=C(O)c1cn(C(CO)CO)c2cnc(Cc3cccc(Cl)c3F)cc2c1=O [Example 5L]
Second: CC(C)[C@@H](CO)n1cc(C(=O)O)c(=O)c2cc(Cc3cccc(Cl)c3F)ncc21 [Example 5A, 6-(3-Chloro-2-fluoro-benzyl)-1-((S)-1-hydroxymethyl-2-methyl-propyl)-4-oxo-1,4-dihydro-[1,7]naphthyridine-3-carboxylic acid]
The EC50 of the first is higher: over 100 nM for the first, 10 to 100 nM for the second. The second is the more potent here.

`CC(C)[C@@H](CO)n1cc(C(=O)O)c(=O)c2nc(Cc3cccc(Cl)c3F)ccc21` [Example 8A, 6-(3-Chloro-2-fluoro-benzyl)-1-((S)-1-hydroxymethyl-2-methyl-propyl)-4-oxo-1,4-dihydro-[1,5]naphthyridine-3-carboxylic acid] and `COc1nc2c(cc1Nc1cccc(Cl)c1F)c(=O)c(C(=O)O)cn2[C@H](CO)C(C)C` [Example 20OO, (S)-6-(3-chloro-2-fluorophenylamino)-1-(1-hydroxy-3-methylbutan-2-yl)-7-methoxy-4-oxo-1,4-dihydro-1,8-naphthyridine-3-carboxylic acid] cannot be ordered by EC50: over 100 nM for the first, over 100 nM for the second.

Compared with `COCCCNc1nc2c(cc1Cc1cccc(Cl)c1F)c(=O)c(C(=O)O)cn2[C@H](CO)C(C)(C)C` [Example 2U], `COCCCCOc1nc2c(cc1Cc1cccc(Cl)c1F)c(=O)c(C(=O)O)cn2[C@H](CO)C(C)(C)C` [Example 2J] is higher in EC50: under 10 nM for the first, 10 to 100 nM for the second. The first is the more potent here.

`COc1cc2c(cc1CCc1ccc(F)cc1F)c(=O)c(C(=O)O)cn2[C@H](CO)C(C)(C)C` [Example 18A, 6-[2-(2,4-Difluoro-phenyl)-ethyl]-1-((S)-1-hydroxymethyl-2,2-dimethyl-propyl)-7-methoxy-4-oxo-1,4-dihydro-quinoline-3-carboxylic acid] and `CC(C)(C)[C@@H](CO)n1cc(C(=O)O)c(=O)c2cc(OCc3ccc(F)cc3F)ccc21` [Example 23B, (S)-6-(2,4-difluorobenzyloxy)-1-(1-hydroxy-3,3-dimethylbutan-2-yl)-4-oxo-1,4-dihydroquinoline-3-carboxylic acid] cannot be ordered by EC50: over 100 nM for the first, over 100 nM for the second.

`CC(C)(C)[C@@H](CO)n1cc(C(=O)O)c(=O)c2cc(Cc3cccc(Cl)c3F)c(N3CC[C@@H](O)C3)nc21` [Example 2W] and `CC(C)(C)[C@@H](CO)n1cc(C(=O)O)c(=O)c2cc(Cc3cccc(Cl)c3F)c(N3CCC(O)CC3)nc21` [Example 2X] fall in the same range of EC50: 10 to 100 nM for the first, 10 to 100 nM for the second.

First: COc1nc2c(cc1N1CCCc3ccccc31)c(=O)c(C(=O)O)cn2[C@H](CO)C(C)C [Example 17O]
Second: COc1nc2c(cc1NCc1ccccc1F)c(=O)c(C(=O)O)cn2[C@H](CO)C(C)C [Example 20D, (S)-6-(2-fluorobenzylamino)-1-(1-hydroxy-3-methylbutan-2-yl)-7-methoxy-4-oxo-1,4-dihydro-1,8-naphthyridine-3-carboxylic acid]
The EC50 of the first is higher: over 100 nM for the first, 10 to 100 nM for the second.

Compared with `COc1nc2c(cc1NCc1cc(F)ccc1F)c(=O)c(C(=O)O)cn2[C@H](CO)C(C)C` [Example 20CC, (S)-6-(2,5-difluorobenzylamino)-1-(1-hydroxy-3-methylbutan-2-yl)-7-methoxy-4-oxo-1,4-dihydro-1,8-naphthyridine-3-carboxylic acid], `COc1nc2c(cc1NCc1ccc(F)cc1F)c(=O)c(C(=O)O)cn2[C@H](CO)C(C)C` [Example 20R, (S)-6-(2,4-difluorobenzylamino)-1-(1-hydroxy-3-methylbutan-2-yl)-7-methoxy-4-oxo-1,4-dihydro-1,8-naphthyridine-3-carboxylic acid] is lower in EC50: over 100 nM for the first, 10 to 100 nM for the second.

`COc1nc2c(cc1NCc1cccc(Cl)c1)c(=O)c(C(=O)O)cn2[C@H](CO)C(C)C` [Example 20I, (S)-6-(3-chlorobenzylamino)-1-(1-hydroxy-3-methylbutan-2-yl)-7-methoxy-4-oxo-1,4-dihydro-1,8-naphthyridine-3-carboxylic acid] and `COc1nc2c(cc1NCc1cccc(F)c1)c(=O)c(C(=O)O)cn2[C@H](CO)C(C)C` [Example 20E, (S)-6-(3-fluorobenzylamino)-1-(1-hydroxy-3-methylbutan-2-yl)-7-methoxy-4-oxo-1,4-dihydro-1,8-naphthyridine-3-carboxylic acid] cannot be ordered by EC50: over 100 nM for the first, over 100 nM for the second.

`COc1nc2c(cc1Cc1ccc(F)c(F)c1)c(=O)c(C(=O)O)cn2[C@H](CO)C(C)C` [Example 1B] and `COc1nc2c(cc1CNc1ccc(F)cc1F)c(=O)c(C(=O)O)cn2[C@H](CO)C(C)C` [Example 12B] cannot be ordered by EC50: over 100 nM for the first, over 100 nM for the second.

`COc1nc2c(cc1Nc1ccc(F)cc1)c(=O)c(C(=O)O)cn2[C@H](CO)C(C)C` [Example 20QQ, (S)-6-(4-fluorophenylamino)-1-(1-hydroxy-3-methylbutan-2-yl)-7-methoxy-4-oxo-1,4-dihydro-1,8-naphthyridine-3-carboxylic acid] and `COc1nc2c(cc1CNc1ccc(F)cc1)c(=O)c(C(=O)O)cn2[C@H](CO)C(C)C` [Example 12D] cannot be ordered by EC50: over 100 nM for the first, over 100 nM for the second.

`COc1nc2c(cc1COc1c(F)cc(F)cc1F)c(=O)c(C(=O)O)cn2[C@H](CO)C(C)C` [Example 14A, (S)-1-(1-hydroxy-3-methylbutan-2-yl)-7-methoxy-4-oxo-6-((2,4,6-trifluorophenoxy)methyl)-1,4-dihydro-1,8-naphthyridine-3-carboxylic acid] and `COc1nc2c(cc1NCc1cc(F)c(F)c(F)c1)c(=O)c(C(=O)O)cn2[C@H](CO)C(C)C` [Example 20DD, (S)-1-(1-hydroxy-3-methylbutan-2-yl)-7-methoxy-4-oxo-6-(3,4,5-trifluorobenzylamino)-1,4-dihydro-1,8-naphthyridine-3-carboxylic acid] cannot be ordered by EC50: over 100 nM for the first, over 100 nM for the second.

`CC(C)(C)[C@@H](CO)n1cc(C(=O)O)c(=O)c2cc(Cc3cccc(Cl)c3F)c(N3CCN(CCO)CC3)nc21` [Example 2Z] and `CC(C)(C)[C@@H](CO)n1cc(C(=O)O)c(=O)c2cc(Cc3cccc(Cl)c3F)c(OCCN3CCOCC3)nc21` [Example 2M] fall in the same range of EC50: 10 to 100 nM for the first, 10 to 100 nM for the second.

Going from `COc1nc2c(cc1Cc1cccc(Cl)c1F)c(=O)c(C(=O)O)cn2[C@H]1CCCC[C@@H]1O` [Example 1P] to `COc1nc2c(cc1Cc1cccc(Cl)c1F)c(=O)c(C(=O)O)cn2[C@H](CO)C(C)(C)C` [Example 1H], the EC50 falls from over 100 nM to under 10 nM. The second is the more potent here.

`COc1nc2c(cc1NCc1cccc(F)c1F)c(=O)c(C(=O)O)cn2[C@H](CO)C(C)C` [Example 20BB, (S)-6-(2,3-difluorobenzylamino)-1-(1-hydroxy-3-methylbutan-2-yl)-7-methoxy-4-oxo-1,4-dihydro-1,8-naphthyridine-3-carboxylic acid] and `COc1nc2c(cc1NCc1ccc(Cl)c(F)c1)c(=O)c(C(=O)O)cn2[C@H](CO)C(C)C` [Example 20H, (S)-6-(4-chloro-3-fluorobenzylamino)-1-(1-hydroxy-3-methylbutan-2-yl)-7-methoxy-4-oxo-1,4-dihydro-1,8-naphthyridine-3-carboxylic acid] cannot be ordered by EC50: over 100 nM for the first, over 100 nM for the second.

`COc1nc2c(cc1-c1ccc(OCc3ccccc3)c(F)c1)c(=O)c(C(=O)O)cn2[C@H](CO)C(C)C` [Example 17J] and `COc1nc2c(cc1N[C@@H](C)c1ccc(F)cc1)c(=O)c(C(=O)O)cn2[C@H](CO)C(C)C` [Example 20KK, 6-((S)-1-(4-fluorophenyl)ethylamino)-1-((S)-1-hydroxy-3-methylbutan-2-yl)-7-methoxy-4-oxo-1,4-dihydro-1,8-naphthyridine-3-carboxylic acid] cannot be ordered by EC50: over 100 nM for the first, over 100 nM for the second.

First: COc1nc2c(cc1NCc1ccc(F)cc1)c(=O)c(C(=O)O)cn2[C@H](CO)C(C)(C)C [Example 20MM, (S)-6-(4-fluorobenzylamino)-1-(1-hydroxy-3,3-dimethylbutan-2-yl)-7-methoxy-4-oxo-1,4-dihydro-1,8-naphthyridine-3-carboxylic acid]
Second: CCOc1nc2c(cc1NCc1c(F)cc(F)cc1F)c(=O)c(C(=O)O)cn2[C@H](CO)C(C)C [Example 27B, (S)-7-Ethoxy-1-(1-hydroxy-3-methylbutan-2-yl)-4-oxo-6-(2,4,6-trifluorobenzylamino)-1,4-dihydro-1,8-naphthyridine-3-carboxylic acid]
The EC50 of the first is higher: over 100 nM for the first, 10 to 100 nM for the second. The second is the more potent here.

Same assay, conditions: Human immunodeficiency virus 1, HeLa, HIV-1 luciferase reporter, HeLa cells

For `COc1nc2c(cc1COc1c(F)cc(F)cc1F)c(=O)c(C(=O)O)cn2[C@H](CO)C(C)C` [Example 14A, (S)-1-(1-hydroxy-3-methylbutan-2-yl)-7-methoxy-4-oxo-6-((2,4,6-trifluorophenoxy)methyl)-1,4-dihydro-1,8-naphthyridine-3-carboxylic acid], the EC50 was over 2500 nM.

Same assay, conditions: Human immunodeficiency virus 1, read-out: Rank, rank of EC50, HIV-1 luciferase reporter

`COc1nc2c(cc1COc1c(F)cc(F)cc1F)c(=O)c(C(=O)O)cn2[C@H](CO)C(C)C` [Example 14A, (S)-1-(1-hydroxy-3-methylbutan-2-yl)-7-methoxy-4-oxo-6-((2,4,6-trifluorophenoxy)methyl)-1,4-dihydro-1,8-naphthyridine-3-carboxylic acid] was tested, and the EC50 was over 100 nM.
